This is an account of results in US6541493B1, “Crystals of 5-[{6-(2-fluorobenzyl)oxy-2-naphthyl}methyl]-2,4-thiazolidinedione” (Mitsubishi Chemical Corporation, priority 1999, dated 2003).

“Also recorded” adds a separate entry of the source.

Common to all, as to assay type: physicochemical
The nature of data set [1]: Stability to physical impact (grinding in agate mortar, powder X-ray diffraction). As to conditions: 1 g ground for 1 minute in agate mortar, powder X-ray diffraction pattern compared with before grinding. Here is the method: A sample (1 g) of each of the type A-D crystals was placed in an agate mortar, and ground for 1 minute, and powder X-ray diffraction pattern of the ground sample was determined. The pattern was compared with that of the crystal form before the grinding to examine a change of the crystal form.

The nature of data set [2]: Thermal stability (oven heating, powder X-ray diffraction). The settings on record: about 50 mg in glass bottle, under atmosphere in oven at 70° C. for 24 hours. Here is the method: A sample (about 50 mg) of each of the crystals of types A, C and D was placed in a transparent glass bottle, and heated under atmosphere in an oven at 70° C. for 24 hours. After cooling, powder X-ray diffraction pattern was measured to examine a change of the crystal form.

The nature of data set [3]: Stability in a solvent (heated with stirring in suspension). The settings on record: heated with stirring in suspension in water, methylene chloride, hexane, ethyl acetate-hexane and ethanol. From the text:
The type A crystals were heated with stirring in a state of suspension in a variety of solvents including water, methylene chloride, hexane, ethyl acetate-hexane and ethanol, and then examined the absence or presence of a change of the crystal form after the treatment.

`O=C1NC(=O)C(Cc2ccc3cc(OCc4ccccc4F)ccc3c2)S1` (centres unmarked) [Crystal form C, 5-[{6-(2-fluorobenzyl)oxy-2-naphthyl}methyl]-2,4-thiazolidinedione]: the Change after grinding result in data set [1] (listed as C) is “No change”. Further, the “Change of the crystal form after heating” value in data set [2] (listed as type C) was “partial change”.
For the compound `O=C1NC(=O)C(Cc2ccc3cc(OCc4ccccc4F)ccc3c2)S1` (centres unmarked) [Crystal form A, 5-[{6-(2-fluorobenzyl)oxy-2-naphthyl}methyl]-2,4-thiazolidinedione], the Change after grinding result in data set [1] (listed as A) is “No change”. In data set [2] (listed as type A), the “Change of the crystal form after heating” value is “no change”. In addition, the “Change of the crystal form after treatment in solvents” value in data set [3] was “no change”.
As to `O=C1NC(=O)C(Cc2ccc3cc(OCc4ccccc4F)ccc3c2)S1` (centres unmarked) [Crystal form B, 5-[{6-(2-fluorobenzyl)oxy-2-naphthyl}methyl]-2,4-thiazolidinedione], the Change after grinding entry in data set [1] (listed as B) was “Partial changes; also recorded: Partially changed”.
For the compound `O=C1NC(=O)C(Cc2ccc3cc(OCc4ccccc4F)ccc3c2)S1` (centres unmarked) [Crystal form D, 5-[{6-(2-fluorobenzyl)oxy-2-naphthyl}methyl]-2,4-thiazolidinedione], the Change after grinding entry in data set [1] (listed as D) is “Partial changes; also recorded: Partially changed”. The “Change of the crystal form after heating” value in data set [2] is reported as “no change”.
